Experimental data reported in patent US20230303613A1, “3′3′ CYCLIC DINUCLEOTIDES WITH AN ALKENYLENE” (Institute of Organic Chemistry and Biochemistry AS CR, v.v.i, priority 2020, published 2023).

Key:
WT STING [1] = target: T1, WT STING (Homo sapiens, UniProt Q86WV6, H232R); assay: 293T WT STING standard reporter assay; type: cell-based; conditions: 293T wtSTING-FL cells; 7 hours with compound, no digitonin; ISRE firefly luciferase reporter
Source text: (§1) Two complementary oligonucleotides of the sequence […] […] […] […] […] The oligonucleotides were mixed in equal molar amounts, hybridized, and cleaved by restriction endonucleases HindIII (cat. #. R0104S, NEB, Ipswich, USA) and BglII (cat. # R0144S, NEB, Ipswich, USA). Ultimately, they were ligated into plasmid pGL4.27 (cat. # E6651, Promega, Madison, USA) linearized with the same enzymes. As result the sequence with four ISRE sites was placed upstream of the minimum promoter of firefly luciferase reporter gene.
(§2) After 5 minutes incubation at room temperature (RT), 250 µL of the mixture was added dropwise to the cells in one well. Cells were incubated 36 hours at 37° C. with 5% CO2, and then detached with 0.05% Trypsin and 0.22 g/L EDTA (both cat. # L0941, Biowest, Riverside, USA).
(§3) Transfected cells were seeded onto poly-D-lysine coated six well plates at density 50,000 cells per 1 cm^2 in DMEM medium with high glucose containing 10% heat inactivated FBS, 30 µg/mL blasticidin (cat. # ant-bl-05, InvivoGen, San Diego, USA), 0.06 mg/ml Penicillin G and 0.1 mg/ml Streptomycin Sulfate (both cat. #. L0018, Biowest, Riverside, USA). The medium was replenished every 3 - 4 days until visible colonies of cells resistant to blasticidin were formed.
(§4) Blasticidin resistant cells stably expressing WT STING were further transfected with […] plasmid following the same procedure as described above. […] Homogeneous culture of stably double transfected cells was prepared by limiting dilution of cells in 96 well plates and wells with cells were selected that originated from a single cell.
The medium was removed next day and three-fold serial dilutions of compounds in 100 µl medium were added to the cells. The plates with cells were incubated for 7 hours at 37° C. with 5% CO2. After 50 µl of the medium was removed, 30 µl of ONE-Glo^Tm Luciferase Assay System reagent (cat. # E6120, Promega, Madison, USA) was added to each well and luminescence was read on Synergy H1 (Biotek, Winooski, USA).
Target sequence in this assay (Q86WV6 whole entry H232R): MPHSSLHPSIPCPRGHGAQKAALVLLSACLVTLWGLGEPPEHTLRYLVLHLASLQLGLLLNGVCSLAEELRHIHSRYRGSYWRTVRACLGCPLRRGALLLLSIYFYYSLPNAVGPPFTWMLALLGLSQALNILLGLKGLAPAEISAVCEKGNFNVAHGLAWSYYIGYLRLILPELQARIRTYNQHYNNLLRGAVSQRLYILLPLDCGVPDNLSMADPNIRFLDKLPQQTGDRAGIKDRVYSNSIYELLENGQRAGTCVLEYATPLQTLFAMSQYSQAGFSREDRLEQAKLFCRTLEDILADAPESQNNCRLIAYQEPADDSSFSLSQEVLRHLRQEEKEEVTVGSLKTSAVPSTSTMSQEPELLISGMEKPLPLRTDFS

AQ STING (G230A-R293Q) = target: T2, AQ STING (G230A-R293Q) (Homo sapiens, UniProt Q86WV6, G230A/H232R/R293Q); assay: Differential Scanning Fluorimetry with AQ STING; type: binding; conditions: thermal shift vs apoprotein, 150 µM CDN, truncated human AQ STING 0.1 mg/ml; for ΔTm at 150 µM: read-out: DSF ΔTm AQ STING
T2 construct: 8xHis (N, cleaved yes); SUMO (N, cleaved yes); made in house; host or cells: E. coli Rosetta-gami B (DE3)
T2 sequence (Q86WV6 140-343 G230A/H232R/R293Q): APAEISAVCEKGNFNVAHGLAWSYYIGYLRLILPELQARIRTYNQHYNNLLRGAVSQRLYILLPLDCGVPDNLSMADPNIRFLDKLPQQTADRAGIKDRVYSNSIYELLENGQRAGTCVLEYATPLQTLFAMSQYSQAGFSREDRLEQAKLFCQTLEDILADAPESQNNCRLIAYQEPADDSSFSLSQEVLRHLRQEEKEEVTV
Source text: (§5) Purified PCR products were cleaved with restriction enzymes BamHI (cat. # R0136S, NEB, Ipswich, USA) and NotI (cat. # R0189S, NEB, Ipswich, USA) and cloned into the pSUMO vector linearized with the identical enzymes.
(§6) Bacterial pellets were re-suspended in ice-cold lysis buffer containing 50 mmol.1^-1 TrisCl (cat. # T1503, Sigma Aldrich, Czech Republic) pH 8.0, 300 mmol.1^-1 NaCl, 3 mmol.1^-1 β-mercaptoethanol (cat. # M6250, Sigma Aldrich, Czech Republic), 10% glycerol (cat. # G5516, Sigma Aldrich, Czech Republic) and 20 mmol.1^-1 imidazole (cat. # I5513, Sigma Aldrich, Czech Republic) using Dounce homogenizer. DNase I (cat. # D5025, Sigma Aldrich, Czech Republic) and RNase A (cat. # R6513, Sigma Aldrich, Czech Republic) were added (final concentration 50 µg/ml) together with MgCl2 (final concentration 5 mmol.l^-1) to the homogenate and bacteria were lysed using French Press G-M™ High-Pressure Cell Press Homogenizer (1500 psi, 3 cycles). […] The resin was poured into a chromatography column, washed with 50 ml buffer A (50 mmol.1^-1 TrisCl (pH 8.0), 800 mmol.1^-1 NaCl, 3 mmol.1^-1 β-mercaptol; 10% glycerol; 20 mmol.1^-1 imidazole) and 8-His-SUMO tagged STING proteins were eluted with 15 ml buffer A containing 300 mmol.1^-1 imidazole. […] Proteins were concentrated with Amicon® Ultra-15 10 K device (cat. # UFC901008, Merck Millipore, Billerica, USA) and flash frozen in liquid N2.
(§7) 20 µL solutions of the reaction mixtures were pipetted in triplicates into 96 well optical reaction plates and thermal denaturation of samples were performed on real time PCR cycler (LightCycler® 480 Instrument II - Roche, Basel, Switzerland). The first derivative of the thermal denaturation curves was performed to calculate denaturing temperatures of STING - CDN complexes and STING apoproteins. The thermal shift for each CDN was calculated by subtracting the average denaturing temperature of STING apoprotein from the average denaturing temperature of STING CDN complex.

WT STING [2] = target: T1, WT STING; assay: Digitonin assay using 293T wtSTING-FL reporter cells; type: cell-based; conditions: 293T wtSTING-FL cells; 30 minutes in Digitonin buffer, then 5 hours; ISRE firefly luciferase reporter
Source text: as §1, §2, §3, §4
Target sequence in this assay (Q86WV6 whole entry H232R): as the sequence (Q86WV6 whole entry H232R) above
The medium was removed next day and three fold serial dilutions of compounds in Digitonin buffer containing 50 mmol.l^-1 HEPES (cat. # H3375, Sigma Aldrich, Czech Republic) pH 7.0, 100 mmol.1^-1 KCl, 3 mmol.l^-1 MgCl2, 0.1 mmol.l^-1 DTT (cat. # D0632, Sigma Aldrich, Czech Republic), 85 mmol.1^-1 Sucrose (cat. # S7903, Sigma Aldrich, Czech Republic), 0.2% BSA (cat. # A2153, Sigma Aldrich, Czech Republic), 1 mmol.l^-1 ATP (cat. # A1852, Sigma Aldrich, Czech Republic), 0.1 mmol.1^-1 GTP (cat. # G8877, Sigma Aldrich, Czech Republic), and 10 µg/mL Digitonin A (cat. # D141, Sigma Aldrich, Czech Republic) were added to the cells. The buffer was removed after 30 minutes incubation at 37° C. with 5% CO2, the cells were washed once with 100 µl of cultivation medium, and 100 µl of medium was added to each well. The plates with cells were incubated for 5 hours at 37° C. with 5% CO2, 50µl of the medium was removed and 30 µl of ONE-Glo^Tm Luciferase Assay System reagent (cat. # E6120, Promega, Madison, USA) was added to each well. Luminescence was read on Synergy H1 (Biotek, Winooski, USA).

WT STING [3] = target: T1, WT STING; assay: Differential Scanning Fluorimetry with WT STING; type: binding; design: 8xHis (N, cleaved yes); SUMO (N, cleaved yes); made in house; host or cells: E. coli Rosetta-gami B (DE3); conditions: thermal shift vs apoprotein, 150 µM CDN, truncated human WT STING 0.1 mg/ml; for ΔTm at 150 µM: read-out: DSF ΔTm WT STING
Source text: as §5, §6, §7
Target sequence in this assay (Q86WV6 140-343 H232R): as the sequence (Q86WV6 140-343 G230A/H232R/R293Q) above, with A91G, Q154R counted along it

Compound | EC50 (WT STING [1]) | DSF ΔTm AQ STING (AQ STING (G230A-R293Q)) | EC50 (WT STING [2]) | DSF ΔTm WT STING (WT STING [3]) | ΔTm at 150 µM (AQ STING (G230A-R293Q)) | ΔTm at 150 µM (WT STING [3])
Nc1nc2c(ncn2[C@@H]2O[C@@H]3COP(=O)(O)O[C@@H]4[C@H](O)[C@@H](COP(=O)(O)O[C@@H]2[C@@H]3O)O[C@H]4n2cnc3c(N)ncnc32)c(=O)[nH]1 [2′2′-cGAMP, reference compound] | 10.2 µM | 19.4 °C | 0.03 µM | 11.5 °C | – | –
Nc1nc2c(ncn2[C@@H]2O[C@@H]3/C=C/P(=O)(O)O[C@H]4[C@@H](F)[C@H](n5cnc6c(N)ncnc65)O[C@@H]4COP(=O)(O)O[C@H]3[C@H]2F)c(=O)[nH]1 [Compound 54, (1R,6R,8R,9R,10R,13E,15R,17R,18R)-17-(2-amino-6-oxo-6,9-dihydro-1H-purin-9-yl)-8-(6-amino-9H-purin-9-yl)-9,18-difluoro-3,12-dihydroxy-2,4,7,11,16-pentaoxa-3λ^5,12λ^5-diphosphatricycl [13.3.0.0^6,^10]octadec-13-ene-3,12-dione] | – | – | 0.02 µM | – | 15 °C | 9.2 °C
Nc1nc2c(ncn2[C@@H]2O[C@@H]3/C=C/P(=O)(O)O[C@H]4C[C@H](n5cnc6c(N)ncnc65)O[C@@H]4COP(=O)(O)O[C@H]3[C@H]2O)c(=O)[nH]1 [Compound 55, (1S,6R,8R,10S,13E,15R,17R,18R)-17-(2-amino-6-oxo-6,9-dihydro-1H-purin-9-yl)-8-(6-amino-9H-purin-9-yl)-3,12,18-trihydroxy-2,4,7,11,16-pentaoxa-3λ^5,12λ^5-diphosphatricyclo[13.3.0.0^6,^10]octadec-13-ene-3,12-dione] | – | – | 0.78 µM | – | 8.6 °C | 1.9 °C
Nc1nc2c(ncn2[C@@H]2O[C@@H]3/C=C/P(=O)(O)O[C@H]4[C@@H](F)[C@H](n5cnc6c(=O)[nH]c(N)nc65)O[C@@H]4COP(=O)(O)O[C@H]3[C@H]2F)c(=O)[nH]1 [Compound 56, (1R,6R,8R,9R,10R,13E,15R,17R,18R)-8,17-bis(2-amino-6-oxo-6,9-dihydro-1H-purin-9-yl)-9,18-difluoro-3,12-dihydroxy-2,4,7,11,16-pentaoxa-3λ^5,12λ^5-diphosphatricyclo[13.3.0.0^6,^10]octadec-13-ene-X3.12-dione] | – | – | 0.5 µM | – | 10.6 °C | 4.1 °C
Nc1nc2c(ncn2[C@H]2C[C@@H]3OP(=O)(O)/C=C/[C@H]4O[C@@H](n5cnc6c(N)ncnc65)[C@H](F)[C@@H]4OP(=O)(O)OC[C@H]3O2)c(=O)[nH]1 [Compound 57, (1R,6R,8R,10S,13E,15R,17R,18R)-8-(2-amino-6-oxo-6,9-dihydro-1H-purin-9-yl)-17-(6-amino-9H-purin-9-yl)-18-fluoro-3,12-dihydroxy-2,4,7,11,16-pentaoxa-3λ^5,12λ^5-diphosphatricyclo[13.3.0.0^6,^10]octadec-13-ene-3,12-dione] | – | – | 0.12 µM | – | 11.3 °C | 6.1 °C
Nc1nc(N)c2ncn([C@@H]3O[C@@H]4COP(=O)(O)O[C@H]5[C@@H](O)[C@H](n6cnc7c(=O)[nH]c(N)nc76)O[C@@H]5/C=C\P(=O)(O)O[C@H]4[C@H]3F)c2n1 [Compound 65, (1S,6R,8R,9R,10R,13Z,15R,17R,18R)-17-(2-amino-6-oxo-6,9-dihydro-1H-purin-9-yl)-8-(2,6-diamino-9H-purin-9-yl)-9-fluoro-3,12,18-trihydroxy-2,4,7,11,16-pentaoxa-3λ^5,12λ^5-diphosphatricyclo[13.3.0.0^6,^10]octadec-13-ene-3,12-dione] | – | – | 5 µM | – | 8 °C | 3.1 °C
Nc1nc2c(ncn2[C@@H]2O[C@@H]3/C=C\P(=O)(O)O[C@H]4C[C@H](n5cnc6c(N)nc(F)nc65)O[C@@H]4COP(=O)(O)O[C@H]3[C@H]2O)c(=O)[nH]1 [Compound 66, (1S,6R,8R,10S,13Z,15R,17R,18R)-8-(6-amino-2-fluoro-9H-purin-9-yl)-17-(2-amino-6-oxo-6,9-dihydro-1H-purin-9-yl)-3,12,18-trihydroxy-2,4,7,11,16-pentaoxa-3λ^5,12λ^5-diphosphatricyclo[13.3.0.0^6,^10]octadec-13-ene-3,12-dione] | – | – | 15 µM | – | 1.7 °C | 0.5 °C
Nc1nc2c(ncn2[C@@H]2O[C@@H]3/C=C\P(=O)(O)O[C@H]4[C@@H](N)[C@H](n5cnc6c(N)ncnc65)O[C@@H]4COP(=O)(O)O[C@H]3[C@H]2O)c(=O)[nH]1 [Compound 67, (1S,6R,8R,9R,10S,13Z,15R,17R,18R)-9-amino-17-(2-amino-6-oxo-6,9-dihydro-1H-purin-9-yl)-8-(6-amino-9H-purin-9-yl)-3,12,18-trihydroxy-2,4,7,11,16-pentaoxa-3λ^5,12λ^5-diphosphatricyclo[13.3.0.0^6,^10]octadec-13-ene-3,12-dione] | – | – | 6.4 µM | – | 2.9 °C | 0.3 °C
